Where a name gives a salt, the structure may show the parent alone.
What was measured:
human GLP-1R [1] = molecular target: T1, human GLP-1R (Homo sapiens, UniProt P43220, G168S); assay: CHO GLP-1R Clone H6 - Assay 1 (HTRF cAMP agonist assay); type: cell-based; conditions: for EC50: CHO Clone H6, high GLP-1R density, cAMP, geometric mean; for Emax / Assay 1 Emax (%): CHO Clone H6, relative to saturating full agonist GLP-1 7-36 (1 μM), arithmetic mean
T1 construct: expressed in transfected cells
Description: GLP-1R-mediated agonist activity was determined with a cell-based functional assay utilizing an HTRF (Homogeneous Time-Resolved Fluorescence) cAMP detection kit (cAMP HI Range Assay Kit; CisBio cat #62AM6PEJ) that measures cAMP levels in the cell. The method is a competitive immunoassay between native cAMP produced by the cells and exogenous cAMP labeled with the dye d2, The tracer binding is visualized by a mAb anti-cAMP labeled with Cryptate. The specific signal (i.e. energy transfer) is inversely proportional to the concentration of cAMP in either standard or experimental sample.
The human GLP-1R coding sequence (NCBI Reference Sequence NP_002053.3, including naturally-occurring variant Gly168Ser) was subcloned into pcDNA3 (Invitrogen) and a cell line stably expressing the receptor was isolated (designated Clone H6).
(§1) A 1 mL sample of the cell suspension in growth media was counted on a Becton Dickinson ViCell to determine cell viability and cell count per mL. The remaining cell suspension was then adjusted with growth media to deliver 2000 viable cells per well using a Matrix Combi Multidrop reagent dispenser, and the cells were dispensed into a white 384 well tissue culture treated assay plate (Corning 3570). The assay plate was then incubated for 48 hours at 37° C. in a humidified environment in 5% carbon dioxide.
Varying concentrations of each compound to be tested (in DMSO) were diluted in assay buffer (HBSS with Calcium/Magnesium (Lonza/BioWhittaker cat #10-527F)/0.1% BSA (Sigma Aldrich cat #A7409-1L)/20 mM HEPES (Lonza/BioWhittaker cat #17-737E) containing 100 μM 3-isobutyl-1-methylxanthin (IBMX; Sigma cat #15879). The final DMSO concentration is 1%.
After 48 hours, the growth media was removed from the assay plate wells, and the cells were treated with 20 μL of the serially diluted compound in assay buffer for 30 minutes at 37° C. in a humidified environment in 5% carbon dioxide. Following the 30 minute incubation, 10 μL of labeled d2 cAMP and 10 μL of anti-cAMP antibody (both diluted 1:20 in cell lysis buffer; as described in the manufacturer's assay protocol) were added to each well of the assay plate. The plates were then incubated at room temperature and after 60 minutes, changes in the HTRF signal were read with an Envision 2104 multi-label plate reader using excitation of 330 nm and emissions of 615 and 665 nm. Raw data were converted to nM cAMP by interpolation from a cAMP standard curve (as described in the manufacturer's assay protocol) and the percent effect was determined relative to a saturating concentration of the full agonist GLP-17-36 (1 μM) included on each plate. EC50 determinations were made from agonist dose-response curves analyzed with a curve fitting program using a 4-parameter logistic dose response equation.

human GLP-1R [2] = molecular target: T2, human GLP-1R (Homo sapiens, UniProt P43220, L260F); assay: CHO GLP-1R Clone C6 - Assay 2 (HTRF cAMP agonist assay); type: cell-based; conditions: for EC50: CHO clone C6, low GLP-1R density, cAMP, geometric mean; for Emax: CHO clone C6, relative to saturating full agonist GLP-1 (1 μM), arithmetic mean
T2 construct: expressed in transfected cells; host or cells: CHO Flp-In T-REx, clonal line C6 (pcDNA5-FRT-TO)
T2 sequence (P43220 24-463 L260F): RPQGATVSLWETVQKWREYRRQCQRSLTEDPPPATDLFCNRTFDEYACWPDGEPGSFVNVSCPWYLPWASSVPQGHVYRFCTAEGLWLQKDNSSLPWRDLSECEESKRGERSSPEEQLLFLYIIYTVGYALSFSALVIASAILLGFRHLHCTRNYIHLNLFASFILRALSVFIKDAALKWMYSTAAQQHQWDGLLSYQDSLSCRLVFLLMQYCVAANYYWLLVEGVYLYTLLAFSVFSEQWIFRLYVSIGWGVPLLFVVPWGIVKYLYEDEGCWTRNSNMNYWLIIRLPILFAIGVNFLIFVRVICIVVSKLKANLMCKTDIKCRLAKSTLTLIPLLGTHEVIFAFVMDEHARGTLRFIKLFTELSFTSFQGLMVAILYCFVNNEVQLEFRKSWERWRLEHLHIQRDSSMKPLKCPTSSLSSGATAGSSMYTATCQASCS
Description: GLP-1R-mediated agonist activity was determined with a cell-based functional assay utilizing an HTRF (Homogeneous Time-Resolved Fluorescence) cAMP detection kit (cAMP HI Range Assay Kit; Cis Bio cat #62AM6PEJ) that measures cAMP levels in the cell. The method is a competitive immunoassay between native cAMP produced by the cells and exogenous cAMP labeled with the dye d2. The tracer binding is visualized by a mAb anti-cAMP labeled with Cryptate. The specific signal (i.e. energy transfer) is inversely proportional to the concentration of cAMP in either a standard or an experimental sample.
The human GLP-1R coding sequence (NCBI Reference Sequence NP_002053.3, including naturally-occurring variant Leu260Phe) was subcloned into pcDNA5-FRT-TO and a clonal CHO cell line stably expressing a low receptor density was isolated using the Flp-In™ T-Rex™ System, as described by the manufacturer (ThermoFisher).
as §1, with “deliver 1600” for “deliver 2000”, “48 h” for “48 hours”, “environment (95% O2,” for “environment in”, “5% CO2)” for “5% carbon dioxide.”
Varying concentrations of each compound to be tested (in DMSO) were diluted in assay buffer [HBSS with Calcium/Magnesium (Lonza/BioWhittaker cat #10-527F)/0.1% BSA (Sigma Aldrich cat #A7409-1L)/20 mM HEPES (Lonza/BioWhittaker cat #17-737E)] containing 100 μM 3-isobutyl-1-methylxanthin (IBMX; Sigma cat #15879). The final DMSO concentration in the compound/assay buffer mixture is 1%.
After 48 h, the growth media was removed from the assay plate wells, and the cells were treated with 20 μL of the serially diluted compound in assay buffer for 30 min at 37° C. in a humidified environment (95% O2, 5% CO2). Following the 30 min incubation, 10 μL of labeled d2 cAMP and 10 μL of anti-cAMP antibody (both diluted 1:20 in cell lysis buffer; as described in the manufacturer's assay protocol) were added to each well of the assay plate. The plates were then incubated at room temperature and after 60 minutes, changes in the HTRF signal were read with an Envision 2104 multi-label plate reader using excitation of 330 nm and emissions of 615 and 665 nm. Raw data were converted to nM cAMP by interpolation from a cAMP standard curve (as described in the manufacturer's assay protocol) and the percent effect was determined relative to a saturating concentration of the full agonist GLP-1 (1 μM) included on each plate. EC50 determinations were made from agonist dose response curves analyzed with a curve fitting program using a 4-parameter logistic dose response equation.

T1 sequence (P43220 24-463 G168S): as the sequence (P43220 24-463 L260F) above, with G145S, F237L counted along it

Row | EC50 (human GLP-1R [1]) | Emax (human GLP-1R [1]) | Assay 1 Emax (%) (human GLP-1R [1]) | EC50 (human GLP-1R [2]) | Emax (human GLP-1R [2]) | Compound
1 | 300 nM | 65% |  |  |  | COCCn1c(C2CC23CCN(c2nc(OCc4ccc(Cl)cc4F)ncc2F)CC3)nc2cnc(C(=O)O)cc21 (single isomer, unassigned) [Example 31, 2-(6-{2-[(4-chloro-2-fluorobenzyl)oxy]-5-fluoropyrimidin-4-yl}-6-azaspiro[2.5]oct-1-yl)-1-(2-methoxyethyl)-1H-imidazo[4,5-c]pyridine-6-carboxylic acid, trifluoroacetate salt, single enantiomer; from P7]
2 | > 20000 nM |  |  |  |  | COCCn1c(C2CC23CCN(c2nc(OCc4ccc(Cl)cc4F)ncc2F)CC3)nc2cnc(C(=O)O)cc21 (single isomer, unassigned) [Example 32, 2-(6-{2-[(4-chloro-2-fluorobenzyl)oxy]-5-fluoropyrimidin-4-yl}-6-azaspiro[2.5]oct-1-yl)-1-(2-methoxyethyl)-1H-imidazo[4,5-c]pyridine-6-carboxylic acid, trifluoroacetate salt, single enantiomer; from C23]
3 | 3400 nM |  | 89% |  |  | O=C(O)c1ccc2nc(C3CC34CCN(c3nc(OCc5ccc(Cl)cc5F)ncc3F)CC4)n(CCn3cncn3)c2c1 (single isomer, unassigned) [Example 42, 2-(6-{2-[(4-chloro-2-fluorobenzyl)oxy]-5-fluoropyrimidin-4-yl}-6-azaspiro[2.5]oct-1-yl)-1-[2-(1H-1,2,4-triazol-1-yl)ethyl]-1H-benzimidazole-6-carboxylic acid, trifluoroacetate salt, from C23]
4 | 2600 nM | 56% |  |  |  | COCCn1c(C2CC23CCN(c2cccc(OCc4ccc(Cl)cc4F)n2)CC3)nc2ncc(C(=O)O)cc21 (single isomer, unassigned) [Example 48, 2-(6-{6-[(4-chloro-2-fluorobenzyl)oxy]pyridin-2-yl}-6-azaspiro[2.5]oct-1-yl)-1-(2-methoxyethyl)-1H-imidazo[4,5-b]pyridine-6-carboxylic acid, ENT-1]
5 | > 9700 nM | 100% |  |  |  | COCCn1c(C2CC23CCN(c2ccnc(OCc4ccc(Cl)cc4F)n2)CC3)nc2ccc(C(=O)O)cc21 (single isomer, unassigned; ent-1) [Example 46, Ammonium 2-(6-{2-[(4-chloro-2-fluorobenzyl)oxy]pyrimidin-4-yl}-6-azaspiro[2.5]oct-1-yl)-1-(2-methoxyethyl)-1H-benzimidazole-6-carboxylate, ENT-1]
6 | 43 nM |  | 74% |  |  | N#Cc1ccc(COc2nc(N3CCC4(CC3)CC4c3nc4ccc(C(=O)O)cc4n3CC3CCO3)c(F)cc2F)c(F)c1 (single isomer, unassigned; ent-2) [Example 58]
7 |  |  |  | 42 nM | 95% | N#Cc1ccc(COc2ncccc2C2CCN(Cc3nc4ccc(C(=O)O)cc4n3C[C@@H]3CCO3)CC2)c(F)c1 [Example 5, 2-[(4-{2-[(4-cyano-2-fluorobenzyl)oxy]pyridin-3-yl}piperidin-1-yl)methyl]-1-[(2S)-oxetan-2-ylmethyl]-1H-benzimidazole-6-carboxylic acid]
8 |  |  |  | 220 nM | 100% | Cn1nncc1Cn1c(CN2CCC(c3cccnc3OCc3ccc(Cl)cc3F)CC2)nc2ccc(C(=O)O)cc21 [Example 10, 2-[(4-{2-[(4-chloro-2-fluorobenzyl)oxy]pyridin-3-yl}piperidin-1-yl)methyl]-1-[(1-methyl-1H-1,2,3-triazol-5-yl)methyl]-1H-benzimidazole-6-carboxylic acid, trifluoroacetate salt]
9 |  |  |  | 59 nM | 100% | N#Cc1ccc(COc2ncccc2C2CCN(Cc3nc4ccc(C(=O)O)nc4n3C[C@@H]3CCO3)CC2)c(F)c1 [Example 18, ammonium 2-[(4-{2-[(4-cyano-2-fluorobenzyl)oxy]pyridin-3-yl}piperidin-1-yl)methyl]-3-[(2S)-oxetan-2-ylmethyl]-3H-imidazo[4,5-b]pyridine-5-carboxylate]
10 |  |  |  | 150 nM | 98% | N#Cc1ccc(COc2nccnc2C2CCN(Cc3nc4ccc(C(=O)O)cc4n3C[C@@H]3CCO3)CC2)c(F)c1 [Example 28, ammonium 2-[(4-{3-[(4-cyano-2-fluorobenzyl)oxy]pyrazin-2-yl}piperidin-1-yl)methyl]-1-[(2S)-oxetan-2-ylmethyl]-1H-benzimidazole-6-carboxylate]
11 | 1800 nM | 65% |  |  |  | Cn1c(CN2CCC(c3nccnc3OCc3ccc(Cl)cc3F)CC2)nc2cnc(C(=O)O)cc21 [Example 29, 2-[(4-{3-[(4-Chloro-2-fluorobenzyl)oxy]pyrazin-2-yl}piperidin-1-yl)methyl]-1-methyl-1H-imidazo[4,5-c]pyridine-6-carboxylic acid, trifluoroacetate salt]
12 | 1900 nM | 92% |  |  |  | C[C@H]1CN(c2nccnc2OCc2ccc(Cl)cc2F)CCN1Cc1nc2ccc(C(=O)O)nc2n1C [Example 34, 2-{[(2S)-4-{3-[(4-Chloro-2-fluorobenzyl)oxy]pyrazin-2-yl}-2-methylpiperazin-1-yl]methyl}-3-methyl-3H-imidazo[4,5-b]pyridine-5-carboxylic acid, trifluoroacetate salt]
13 | 170 nM | 110% |  |  |  | Cn1cnc(Cn2c(CN3CCC(c4ccnc(OCc5ccc(Cl)cc5F)n4)CC3)nc3ccc(C(=O)O)cc32)c1 [Example 66, 2-[(4-{2-[(4-chloro-2-fluorobenzyl)oxy]pyrimidin-4-yl}piperidin-1-yl)methyl]-1-[(1-methyl-1H-imidazol-4-yl)methyl]-1H-benzimidazole-6-carboxylic acid]
14 | 700 nM | 79% |  |  |  | C[C@H]1CN(c2nc(OCc3ccc(C#N)cc3)ncc2F)CCN1Cc1nc2ccc(C(=O)O)cc2n1CCC(F)(F)F [Example 70, ammonium 2-{[(2S)-4-{2-[(4-cyanobenzyl)oxy]-5-fluoropyrimidin-4-yl}-2-methylpiperazin-1-yl]methyl}-1-(3,3,3-trifluoropropyl)-1H-benzimidazole-6-carboxylate]
